Literature values in patent US20080076711A1, “Therapeutic agents for osteopenia” (Chugai Seiyaku Kabushiki Kaisha, priority 2001, published 2008).

Tested on: osteoporosis patients
Settings: 21 patients, once-daily subcutaneous injections for 6 to 24 months; cited from earlier work

## human PTH(1-34)
  calcium balance: no improvement in calcium balance
  cancellous bone mass: increased cancellous bone mass
  cortical bone mass: reduced cortical bone mass
